In US10597388B2, “Pyridazinone herbicides” (FMC CORPORATION, priority 2014, dated 2020):

Experiments:
Type in all cases: in vivo
[1] = test system: blackgrass (Alopecurus myosuroides); experiment: Test A greenhouse herbicide test, postemergence; conditions: for Blackgrass plant response rating: 0 to 100 scale, 0 is no effect, 100 is complete control
Summary of the method: (§1)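 Plants grown in loam soil/sand blend pots were treated postemergence at 2 to 10 cm height, one- to two-leaf stage, with formulated test chemicals. After approximately 10 d in a greenhouse, injury was rated visually against untreated controls on a 0 to 100 scale (0 no effect, 100 complete control).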

[2] = test system: galium (catchweed bedstraw, Galium aparine); experiment: Test A greenhouse herbicide test, postemergence; conditions: for Galium plant response rating: 0 to 100 scale, 0 is no effect, 100 is complete control
Summary of the method: as §1

[3] = test system: chickweed (common chickweed, Stellaria media); experiment: Test C greenhouse herbicide test, postemergence
Summary of the method: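 Visual injury scores (0–100, where 100 means complete control) were assigned 13 to 15 d after postemergence application, by comparison with untreated plants. Treated seedlings stood 2 to 18 cm tall, at the 1- to 4-leaf stage.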

[4] = test system: oat, wild (wild oat, Avena fatua); experiment: Test D controlled growth environment herbicide test, pre- and postemergence
From the text: Seeds of plant species selected from bluegrass (annual bluegrass, Poa annua), blackgrass (Alopecurus myosuroides), Canada thistle (Cirsium arvense), canarygrass (Phalaris minor), chickweed (common chickweed, Stellaria media), geranium, cutleaf (cutleaf geranium, Geranium dissectum), galium (catchweed bedstraw, Galium aparine), bromegrass, downy (downy bromegrass, Bromus tectorum), field poppy (Papaver rhoeas), field violet (Viola arvensis), foxtail, green (green foxtail, Setaria viridis), deadnettle (henbit deadnettle, Lamium amplexicaule), ryegrass, Italian (Italian ryegrass, Lolium multiflorum), kochia (Kochia scoparia), lambsquarters (Chenopodium album), oilseed rape (Brassica napus), pigweed (Amaranthus retroflexus), chamomile (scentless chamomile, Matricaria inodora), Russian thistle (Salsola kali), speedwell (bird's-eye speedwell, Veronica persica), barley, spring (spring barley, Hordeum vulgare), wheat, spring (spring wheat, Triticum aestivum), buckwheat, wild (wild buckwheat, Polygonum convolvulus), mustard, wild (wild mustard, Sinapis arvensis), oat, wild (wild oat, Avena fatua), radish, wild (wild radish, Raphanus raphanistrum), windgrass (Apera spica-venti), barley, winter (winter barley, Hordeum vulgare), and wheat, winter (winter wheat, Triticum aestivum) were planted into a silt loam soil and treated preemergence with test chemicals formulated in a non-phytotoxic solvent mixture which included a surfactant.
At the same time, these species were planted in pots containing Redi-Earth® planting medium (Scotts Company, 14111 Scottslawn Road, Marysville, Ohio 43041) comprising spaghnum peat moss, vermiculite, wetting agent and starter nutrients and treated with postemergence applications of the test chemicals formulated in the same manner. Plants ranged in height from 2 to 18 cm (1- to 4-leaf stage). Treated plants and controls were maintained in a controlled growth environment for 14 to 21 d after which time all species were compared to controls and visually evaluated. Plant response ratings, summarized in Table D, are based on a scale of 0 to 100 where 0 is no effect and 100 is complete control. A dash (-) response means no test result.

[5] = 125 g ai/ha, visual rating after approx. 10 d, 0 to 100 scale (0 no effect, 100 complete control)
[6] = Postemergence, 31 g ai/ha, 0 to 100 scale (0 no effect, 100 complete control)
[7] = Postemergence, 125 g ai/ha, scale 0 to 100, 0 is no effect, 100 is complete control
[8] = Postemergence, 250 g ai/ha, scale 0 to 100, 0 no effect, 100 complete control, 13 to 15 d
[9] = postemergence, 62 g ai/ha, scale 0 to 100, 0 no effect, 100 complete control
[10] = 125 g ai/ha, 0 to 100 scale where 0 is no effect and 100 is complete control
[11] = Postemergence, 31 g ai/ha, scale 0 to 100 (0 no effect, 100 complete control)
[12] = Postemergence, 125 g ai/ha, visual rating on scale 0 (no effect) to 100 (complete control), 14 to 21 d
[13] = Postemergence, 250 g ai/ha, scale 0 to 100 (0 no effect, 100 complete control)
[14] = Preemergence, 125 g ai/ha, scale 0 to 100 (0 no effect, 100 complete control)
[15] = Preemergence, 250 g ai/ha, scale 0 to 100 (0 no effect, 100 complete control)
[16] = 500 g ai/ha, visual rating after approx. 10 d, 0 to 100 scale (0 no effect, 100 complete control)

Compound | Blackgrass plant response rating ([1]; 500 g ai/ha) | Galium plant response rating ([2]; 500 g ai/ha) | Chickweed plant response rating [3, 6] | Plant response rating, Chickweed [3, 7] | Plant response rating, Chickweed [3, 8] | Chickweed plant response rating [3, 9] | Plant response rating, Blackgrass [1, 10] | Plant response rating, Galium [2, 10] | Oat, Wild plant response rating [4, 11] | Plant response rating, Oat, Wild [4, 12] | Plant response rating, Oat, Wild [4, 13] | Plant response rating (scale of 0 to 100), Oat, Wild ([4]; Preemergence, 31 g ai/ha) | Plant response rating, Oat, Wild [4, 14] | Plant response rating, Oat, Wild [4, 15] | Plant response rating, Oat, Wild [4, 9] | Plant response rating (scale of 0 to 100), Oat, Wild ([4]; Preemergence, 62 g ai/ha) | Plant response rating, Galium [2, 16] | Plant response rating, Chickweed [3, 11] | also measured
CCOC(=O)Oc1c(C)nn(C)c(=O)c1-c1c(CC)ccc2ccccc12 [Compound 37] | 100 | 100 | 90 | 90 | 95 | 90 | – | – | – | – | – | – | – | – | – | – | – | – | Plant response rating, Blackgrass [1, 5]: 60; Plant response rating, Galium [2, 5]: 100
COc1ccc2ccccc2c1-c1c(O)c(C)nn(C)c1=O [Compound 40] | 80 | 100 | 55 | 90 | – | 60 | 60 | 90 | – | – | – | – | – | – | – | – | – | – | Plant response rating, Chickweed ([3]; Postemergence, 16 g ai/ha, scale 0 to 100 (0 no effect, 100 complete control)): 50
Cc1ccc(-c2c(O)c(Br)nn(C)c2=O)c2ccccc12 [Compound 52] | 30 | 100 | 95 | 98 | 100 | 90 | 20 | 100 | 5 | 5 | 15 | 25 | 25 | 30 | 5 | – | – | – | Plant response rating, Oat, Wild ([4]; Preemergence, 62 g ai/ha, scale 0 to 100 (0 no effect, 100 complete control)): 25
CC(=O)Oc1c(C)nn(C)c(=O)c1-c1ccc(F)c2ccccc12 [Compound 90] | 90 | 100 | 90 | 95 | 98 | 90 | 70 | 100 | 75 | 98 | 100 | 75 | 85 | 98 | 90 | 80 | – | – | –
Cc1nn(C)c(=O)c(-c2c(C)sc3ccc(Cl)cc23)c1O [Compound 104] | 90 | – | – | 100 | 100 | 98 | 90 | 100 | 85 | 95 | 100 | 75 | 80 | 100 | 90 | 80 | 100 | 90 | –
CCCC(=O)Oc1c(C)nn(C)c(=O)c1-c1c(C)sc2c(C)cc(C)cc12 [Compound 106] | 90 | – | – | 95 | 98 | 98 | 90 | 100 | – | – | – | – | – | – | – | – | 100 | 95 | –
CCC(=O)Oc1c(C)nn(C)c(=O)c1-c1c(C)sc2ccc(Cl)cc12 [Compound 109] | 90 | – | – | 95 | 100 | 95 | 80 | 100 | 95 | 95 | 100 | 75 | 90 | 90 | 95 | 80 | 100 | 80 | –
CC(=O)Oc1c(Br)nn(C)c(=O)c1-c1c(C)ccc2ccccc12 [Compound 129] | – | – | – | – | 100 | – | 60 | 100 | 90 | 95 | 100 | 75 | 90 | 100 | 90 | 75 | 100 | 98 | Plant response rating, Blackgrass [1, 16]: 100; Chickweed plant response rating ([3]; Postemergence, 62 g ai/ha, 0 to 100 scale (0 no effect, 100 complete control)): 98; Chickweed plant response rating ([3]; postemergence, 125 g ai/ha, scale 0 to 100, 0 no effect, 100 complete control): 100
